16 molecules from patent US20230203055A1, “FUSED RING COMPOUND AND APPLICATION THEREOF IN MEDICINE” (Betta Pharmaceuticals Co., LTD, priority 2020, published 2023) can be followed below.

Bounds are passed on as bounds.

In one test the test system is MIA PaCa-2 cells. The test is described as follows: Detection of cell proliferation inhibition, MIA PaCa-2 (Cell-titer Glo, 96 h). To be noted: Homo sapiens, read-out: IC50 (nM) MIA PaCa-2. It is filed as cell-based. As to the method:
MIA PaCa-2 cells were plated in a 96-well ultra-low adsorption plate at 600 cells and 160 µL/well. After overnight incubation, compound solutions with gradient concentrations were prepared, and 40 µL of DMSO solutions of the compounds to be tested were added to each well of cells respectively. Compound final concentrations were 10000, 2000, 400, 80, 16, 3.2, 0.64, 0.12, 0.025, 0 nM (all final concentrations of DMSO were 0.25%). Incubate at 37° C., 5% CO2 for 96 h. Add 50 µL of Cell-titer Glo working solution to each well, shake and mix well, incubate at room temperature for 10 min, read the Luminescence luminescence value with a multi-function microplate reader, and convert the luminescence value reading into inhibition percentage: Percent Inhibition = (Max-Reading)/(Max-Min)* 100. • “Max” is the DMSO control; • “Min” is the cell-free control.
Curve fitting was performed with Graphpad Prism software and IC50 values were obtained. See Table 1for IC50 data for the inhibition of MIA PaCa-2 cells by the compounds of the examples.

A further test deals with H358 cells. As to the kind of experiment: Detection of cell proliferation inhibition, H358 (Cell-titer Glo, 96 h). It is filed as cell-based. The note with it: Homo sapiens, NCI-H358, read-out: IC50 (nM) H358. Here is the method:
H358 cells were plated in 96-well ultra-low adsorption plates at 2000 cells and 190 µL/well. After overnight incubation, compound solutions of gradient concentrations were prepared, and 10 µL of the DMSO solution of each concentration of the compound to be tested was added to the cells in each well. Compound final concentrations were 10000, 3333.3, 1111.1, 370.4, 123.5, 41.2, 13.7, 4.6, 1.5, 0 nM (all final concentrations of DMSO were 0.25%). Incubate at 37° C., 5% CO2 for 96 h. Add 50 µL of Cell-titer Glo working solution to each well, incubate at room temperature for 10 min after shaking and mixing, read the Luminescence luminescence value with a multi-function microplate reader, and convert the luminescence value reading into the inhibition percentage:
Percent Inhibition = (Max-Reading)/(Max-Min)* 100. • “Max” is the DMSO control, • “Min” is the cell-free control.
Curve fitting was performed with Graphpad Prism software and IC50 values were obtained. See Table 1 for IC50 data on H358 cell inhibition by example compounds.

As for `C=CC(=O)N1CCN(c2nc(=O)n(-c3c(C)ccnc3C(C)C)c3c(F)c4c(cc23)OCc2ccc3ccccc3c2-4)[C@@H](C)C1` [Example 22, (S)-10-(4-Acryloyl-2-Methylpiperazin-1-yl)-14-Fluoro-13-(2-Isopropyl-4-Methylpyridine-3-yl)-7H-Benzo[5,6] Isochromene[3,4-g]Quinazolin-12(13H)-One], the IC50 – broadly, the point on the concentration scale where inhibition reaches its midpoint – was 2500 nM in the test on MIA PaCa-2 cells and 3740 nM with H358 cells.

As to `C=CC(=O)N1CCN(c2nc(=O)n(-c3c(C)ccnc3C(C)C)c3c4c(c(Cl)cc23)-c2cnccc2CO4)[C@@H](C)C1` [Example 23, (S)-1-(4-Acryloyl-2-Methylpiperazin-1-yl)-11-Chloro-4-(2-Isopropyl-4-Methylpyridine-3-yl)-4H-Pyridin[3’,4’:4,5]Pyrano[3.2-h]Quinazolin-3(6H)-One], the IC50 came out at 292 nM in the test with MIA PaCa-2 cells and 532 nM in the test on H358 cells.

On to `C=CC(=O)N1CCN(c2nc(=O)n(-c3c(CC)ncnc3CC)c3c4c(c(Cl)cc23)-c2c(F)cccc2CCO4)[C@@H](C)C1` [Example 24], for which the IC50 in the test on MIA PaCa-2 cells and with H358 cells was < 50 nM each time.

On to `C=CC(=O)N1CCN(c2nc(=O)n(-c3c(C)ccnc3C(C)C)c3c4c(c(F)cc23)-c2c(F)cccc2CO4)CC1CC#N` (centres unmarked) [Example 25, 2-(1-Acryloyl-4-(10,11-Difluoro-4-(2-Isopropyl-4-Methylpyridin-3-yl)-3-Oxo-3,6-Dihydro-4H-Isochromene[4,3-h] Quinazolin-1-yl) Piperazin-2-yl)Acetonitrile], for which the figures for the concentration for half-maximal inhibition (IC50) in the test with MIA PaCa-2 cells and with H358 cells were 122 nM and 339 nM, respectively.

On to `C=CC(=O)N1CCN(c2nc(=O)n(-c3c(C)ccnc3C(C)C)c3c(F)c4c(cc23)OCc2cccc(F)c2-4)CC1CC#N` (centres unmarked) [Example 26, 2-(1-Acryloyl-4-(1,12-Difluoro-11-(2-Isopropyl-4-Methylpyridin-3-yl)-10-Oxo-10,11-Dihydro-5H -Isochromene[3,4-g]Quinazolin-8-yl)Piperazin-2-yl)Acetonitrile], for which the IC50 with MIA PaCa-2 cells came to 546 nM; in the test on H358 cells it was 349 nM.

Regarding `C=CC(=O)N1CCN(c2nc(=O)n(-c3c(C(C)C)ncc4c3CCC4)c3c4c(c(Cl)cc23)-c2c(ccc(F)c2F)CO4)[C@@H](C)C1` [Example 27], the IC50 was 66 nM with MIA PaCa-2 cells and 110 nM in the test with H358 cells.

Turning to `C=CC(=O)N1CCN(c2nc(=O)n(-c3c(C)ccnc3C(C)C)c3c4c(c(Cl)cc23)-c2c(F)ccc(O)c2CO4)[C@@H](C)C1` [Example 28], the IC50 in the test on MIA PaCa-2 cells was 85 nM; in the test with H358 cells, 95 nM.

As for `C=CC(=O)N1CCN(c2nc(=O)n(-c3c(C)ccnc3C(C)C)c3c4c(c(Cl)cc23)-c2c(F)ccc(F)c2CO4)[C@@H](C)C1` [Example 29], the IC50 in the test on MIA PaCa-2 cells and with H358 cells was < 50 nM each time.

Consider `C=CC(=O)N1CCN(c2nc(=O)n(-c3c(C)ccnc3C(C)C)c3c4c(c(Cl)cc23)-c2c(ccc(F)c2F)CCO4)[C@@H](C)C1` [Example 30, 10-((S)-4-Acryloyl-2-Methylpiperazin-1-yl)-8-Chloro-6,7-Difluoro-13-(2-Isopropyl-4-Methylpyridin-3-yl)-2,3-Dihydrobenzo[4,5] Oxa[3,2-h]Quinazolin-12(13H)-One], for which the IC50 in the test with MIA PaCa-2 cells and in the test on H358 cells was < 50 nM in each case.

On to `C=CC(=O)N1CCN(c2nc(=O)n(-c3c(CC)cncc3CC)c3c4c(c(Cl)cc23)-c2c(F)cccc2CCO4)[C@@H](C)C1` [Example 31, 10-((S)-4-Actyloyl-2-Methylpiperazin-1-yl)-8-Chloro-13-(3,5-Diethylpyridin-4-yl)-7-Fluoro-2,3-Dihydrobenzo[4,5]Oxa[3,2-h]Quinazolin-12(13H)-One], for which the IC50 in the test on MIA PaCa-2 cells and in the test with H358 cells was < 50 nM throughout.

For `C=CC(=O)N1CCN(c2nc(=O)n(-c3c(C4CC4)ncnc3C3CC3)c3c4c(c(Cl)cc23)-c2c(F)cccc2CCO4)[C@@H](C)C1` [Example 32, 10-((S)-4-Acryloyl-2-Methylpiperazin-1-yl)-8-Chloro-13-(4,6-Dicyclopropylpyrimidine-5-Base)-7 -Fluoro-2,3-Dihydrobenzo[4,5] Oxa[3,2-h]Quinazolin-12(13H)-One], the IC50 in the test with MIA PaCa-2 cells and in the test with H358 cells was < 50 nM each time.

For `C=CC(=O)N1CCN(c2nc(=O)n(-c3c(C)ccnc3C(C)C)c3c4c(c(Cl)cc23)-c2c(F)cccc2CO4)C2CC21` (centres unmarked) [Example 33, 1-(5-Acryloyl-2,5-Diazabicyclo [4.1.0] Heptan-2-yl)-11-Chloro-10-Fluoro-4-(2-Isopropyl-4-Methylpyridin-3-yl)-4H-Isochromeno[4,3-h]Quinazolin-3(6H)-One], the IC50 in the test with MIA PaCa-2 cells and in the test with H358 cells was < 50 nM in each case.

Consider `C=C(F)C(=O)N1CCN(c2nc(=O)n(-c3c(C)ccnc3C(C)C)c3c4c(c(Cl)cc23)-c2c(ccc(F)c2F)CO4)[C@@H](C)C1` [Example 34, (S)-11-Chloro-9,10-Difluoro-1-(4-(2-Fluoroacryloyl)-2-Methylpiperazin-1-yl)-4-(2-Isopropyl-4-Methylpyridin-3-yl)-4H-Isochromo[4,3-h] Quinazolin-3(6H)-One], for which the 50% inhibitory concentration (IC50) in the test on MIA PaCa-2 cells is 908 nM; with H358 cells, 780 nM.

For the molecule `[2H]C1([2H])Oc2c(c(Cl)cc3c(N4CCN(C(=O)C=C)C[C@@H]4C)nc(=O)n(-c4c(C)ccnc4C(C)C)c23)-c2c1ccc(F)c2F` [Example 35], the IC50 in the test on MIA PaCa-2 cells and with H358 cells was < 50 nM throughout.

On to `C=CC(=O)N1CCN(c2nc(=O)n(-c3c(C)ccnc3C(C)C)c3nc4c(cc23)OCc2ccccc2-4)[C@@H](C)C1` [Example 36, (S)-8-(4-Acryloyl-2-Methylpiperazin-1-yl)-11-(2-Isopropyl-4-Methylpyridin-3-yl) -5H-Isochromene[3’,4′:5,6]Pyrido[2,3-d]Pyrimidin-10(11H)-One], for which the half-inhibitory concentration (IC50) came to 442 nM in the test with MIA PaCa-2 cells and 889 nM in the test on H358 cells.

As to `C=CC(=O)N1CCN(c2nc(=O)n(-c3c(C)ccnc3C(C)C)c3nc4c(cc23)OCc2cccc(O)c2-4)[C@@H](C)C1` [Example 37, (S)-8-(4-Acryloyl-2-Methylpiperazin-1-yl)-1-Hydroxy-11-(2-Isopropyl-4-Methylpyridine-3-yl)-5 H-Isochromene [3’,4’:5,6] Pyrido [2,3-d] Pyrimidin 10(11H)-One], the half-maximal inhibitory concentration (IC50) with MIA PaCa-2 cells was determined as 1340 nM; with H358 cells, 2490 nM.
